Results taken from patent publication US8158820B2, “Compounds” (AstraZeneca AB, priority 2003, dated 2012).
pIC50: −log10 of the molar value.

Each molecule was assayed against T1, CRTh2 (Homo sapiens, UniProt Q9Y5Y4) (assay: Ligand Binding Assay ([3H]PGD2, SPA beads, HEK cell membranes)). Conditions: [3H]PGD2 binding to membranes of HEK cells expressing rhCRTh2/Gα16.
T1 construct: expressed in transfected cells; host or cells: HEK cells (stably transfected, geneticin selection; membranes prepared)
T1 sequence (Q9Y5Y4 1-395): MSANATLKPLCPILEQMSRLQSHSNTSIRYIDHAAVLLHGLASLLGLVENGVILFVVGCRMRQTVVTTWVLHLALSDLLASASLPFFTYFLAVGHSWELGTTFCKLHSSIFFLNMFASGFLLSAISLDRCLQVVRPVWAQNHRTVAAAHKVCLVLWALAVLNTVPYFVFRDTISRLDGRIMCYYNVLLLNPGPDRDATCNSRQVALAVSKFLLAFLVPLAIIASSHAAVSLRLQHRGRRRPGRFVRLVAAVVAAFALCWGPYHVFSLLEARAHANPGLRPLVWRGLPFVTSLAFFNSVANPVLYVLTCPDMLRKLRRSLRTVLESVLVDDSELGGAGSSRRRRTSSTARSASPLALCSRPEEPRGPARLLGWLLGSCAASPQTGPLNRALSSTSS
Method: [^3H]PGD2 was purchased from Perkin Elmer Life Sciences with a specific activity of 100-210 Ci/mmol. All other chemicals were of analytical grade.
HEK cells expressing rhCRTh2/Gα16 were routinely maintained in DMEM containing 10% Foetal Bovine Serum (HyClone), 1 mg/ml geneticin, 2 mM L-glutamine and 1% non-essential amino acids. For the preparation of membranes, the adherent transfected HEKcells were grown to confluence in two layer tissue culture factories (Fisher, catalogue number TKT-170-070E). Maximal levels of receptor expression were induced by addition of […] sodium butyrate for the last 18 hours of culture. The adherent cells were washed once with phosphate buffered saline (PBS, 50 ml per cell factory) and detached by the addition of 50 ml per cell factory of ice-cold membrane homogenisation buffer [20 mM HEPES (pH 7.4), 0.1 mM dithiothreitol, 1 mM EDTA, 0.1 mM phenyl methyl sulphonyl fluoride and 100 μg/ml bacitracin]. […] The final pellet was re-suspended in 4 ml of membrane homogenisation buffer per cell factory used and the protein content determined. […]
All assays were performed in Corning clear bottomed, white 96-well NBS plates (Fisher). […] (The optimum coating concentrations were determined for each batch of membranes) The beads were pelleted by centrifugation (800×g for 7 minutes at 4° C.), washed once with assay buffer (50 mM HEPES pH 7.4 containing 5 mM magnesium chloride) and finally re-suspended in assay buffer at a bead concentration of 10 mg/ml.
Each assay contained 20 μl of 6.25 nM [^3H]PGD2, 20 μl membrane saturated SPA beads both in assay buffer and 10 μl of compound solution or 13,14-dihydro-15-keto prostaglandin D2 (DK-PGD2, for determination of non-specific binding, Cayman chemical company). […] The assay plate was incubated at room temperature for 2 hours and counted on a Wallac Microbeta liquid scintillation counter (1 minute per well).

pIC50 | Compound
7.40 | CS(=O)(=O)c1ccc(-c2cc(Cl)ccc2OCC(=O)O)cc1 [Example 9, {[5-Chloro-4′-(methylsulfonyl)biphenyl-2-yl]oxy}acetic acid]
8.00 | CN(c1ncc(-c2cc(Cl)ccc2OCC(=O)O)cn1)S(C)(=O)=O [Example 25, (4-Chloro-2-{2-[methyl(methylsulfonyl)amino]pyrimidin-5-yl}phenoxy)acetic acid]
8.20 | CNS(=O)(=O)c1ccc(-c2cc(C(F)(F)F)ccc2OCC(=O)O)cc1 [Example 133, [[4′-[(Methylamino)sulfonyl]-5-(trifluoromethyl)[1,1′-biphenyl]-2-yl]oxy]-acetic acid]
